From patent US12655174B2, “Adenosine A3 receptor agonists, preparation methods and uses thereof” (ZHEJIANG VIMGREEN PHARMACEUTICALS, LTD., priority 2020, dated 2026)

Target: T1, ADORA3 receptor (CHO cells stably expressing ADORA3 receptor) (Homo sapiens, UniProt P0DMS8)
T1 construct: expressed in transfected cells
T1 sequence (P0DMS8 1-318): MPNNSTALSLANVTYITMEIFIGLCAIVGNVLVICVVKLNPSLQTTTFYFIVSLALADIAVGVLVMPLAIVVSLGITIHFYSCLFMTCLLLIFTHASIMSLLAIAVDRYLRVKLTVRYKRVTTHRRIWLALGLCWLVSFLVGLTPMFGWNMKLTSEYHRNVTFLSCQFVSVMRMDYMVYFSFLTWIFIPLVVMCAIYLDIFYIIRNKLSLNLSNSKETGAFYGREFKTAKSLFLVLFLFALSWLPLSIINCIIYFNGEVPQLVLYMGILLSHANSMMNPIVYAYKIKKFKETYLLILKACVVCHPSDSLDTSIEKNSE
Assay: Effect of compound on intracellular cAMP level by adenosine A3 receptor agonism
Type: cell-based
Conditions: forskolin-stimulated
Procedure: Example 26: Test the Effect of Compound on Intracellular cAMP Level by Adenosine A3 Receptor Agonism
• 1) 1×HBSS with Ca2+ and Mg2+ (14 mL), 1 M HEPES (75 μL), a 7.5% (w/v) BSA stabilizer (pH 7.4, 200 μL), and 20 mM rolipram (7.5 μL) were respectively prepared as cAMP assay buffer. • 2) Preparation of compound source plate • a. […] A 10 mM stock solution was subjected to a 3-fold serial dilution by 100% (v/v) DMSO to prepare 10 doses of the test substance. • c. 1 mM of Forskolin was prepared by 100% (v/v) DMSO. • 3) Preparation of test plate • a. Prior to the assay, CHO cells stably expressing ADORA3 receptor were harvested and the cells were counted by using a Countess cell counter. […] The cells were seeded at a density of 2,000 cells/well in a 384-well plate. • 4) 10 nL/well of the serially diluted compound and 10 nL/well of 1 mM of forskolin were transferred to each well with ADORA3 receptor expressing cells by using Echo550. • 5) A cell plate was centrifuged at 1,000 rpm for 1 minute and then stirred at 600 rpm for 2 minutes. The plate was incubated at 37° C. • 6) An Eu-cAMP tracer working solution and an Ulight-anti-cAMP working solution were prepared according to the following table.
• 7) 5 μl/well of the Eu-cAMP tracer working solution and 5 μl/well of the Ulight-anti-cAMP working solution were added to each well of the plate. […] 2. Data Analysis • 1) An activation percentage was calculated by using the following formula:
[formula] • % Activation: activation percentage • Ratiocpd: ratio of emissivity of test compound • RatioLow control: ratio of low emissivity • RatioHigh control: ratio of high emissivity • 2) EC50 was calculated by an XLfit using the Hill equation to fit the activity percentage and a log of a compound concentration. 3. Test Result

With CCOc1cncc(-c2nc(NCc3cccc(C)c3)c3ncn(C4O[C@H](C(=O)NC)[C@@H](O)[C@H]4O)c3n2)c1 (stereo in doubt) [compound 301, (2S,3S,4R,5S)-5-(2-(5-ethoxypyridin-3-yl)-6-((3-methylbenzyl)amino)-9H-purin-9-yl)-3,4-dihydroxyl-N-methyltetrahydrofuran-2-carboxamide] as the compound, how does the EC50 read?
Its EC50 is 3.78 nM.

With CNC(=O)[C@H]1OC(n2cnc3c(NCc4ccccc4)nc(-c4ccccn4)nc32)[C@H](O)[C@@H]1O (stereo in doubt) [compound 325, (2S,3S,4R,5S)-5-(6-(benzylamino)-2-(pyridin-2-yl)-9H-purin-9-yl)-3,4-dihydroxyl-N-methyltetrahydrofuran-2-carboxamide] as the compound, how does the EC50 read?
The EC50 was 9.62 nM.

With CNC(=O)[C@H]1O[C@@H](n2cnc3c(NC)nc(-c4cncc(Cl)c4)nc32)[C@H](O)[C@@H]1O [compound 70, (2S,3S,4R,5R)-5-(2-(5-chloropyridin-3-yl)-6-(methylamino)-9H-purin-9-yl)-3,4-dihydroxyl-N-methyltetrahydrofuran-2-carboxamide] as the compound, how does the EC50 read?
The EC50 was 1.23 nM.

With CNC(=O)[C@H]1O[C@@H](n2cnc3c(NC)nc(-c4cccnc4)nc32)[C@H](O)[C@@H]1O [compound 102, (2S,3S,4R,5R)-3,4-dihydroxyl-N-methyl-5-(6-(methylamino)-2-(pyridin-3-yl)-9H-purin-9-yl)tetrahydrofuran-2-carboxamide] as the compound, how does the EC50 read?
The EC50 was 1.41 nM.

For CNC(=O)[C@H]1O[C@@H](n2cnc3c(NCc4cccc(C)n4)nc(-c4cccnc4)nc32)[C@H](O)[C@@H]1O [compound 107], which EC50 is on record?
Its EC50 is 5.22 nM.

Which EC50 does the source give for [2H]C([2H])([2H])NC(=O)[C@H]1O[C@@H](n2cnc3c(NCc4cc(C)cc(Cl)c4)nc(-c4cncc(Cl)c4)nc32)[C@H](O)[C@@H]1O [compound 222, (2S,3S,4R,5R)-5-(6-((3-chloro-5-methylbenzyl)amino)-2-(5-chloropyridin-3-yl)-9H-purin-9-yl)-3,4-dihydroxyl-N-(methyl-d3)-tetrahydrofuran-2-carboxamide] here?
The EC50 was 0.89 nM.

Which EC50 does the source give for [2H]C([2H])([2H])NC(=O)[C@H]1O[C@@H](n2cnc3c(NCc4cccc(CC)c4)nc(-c4cncc(Cl)c4)nc32)[C@H](O)[C@@H]1O [compound 223, (2S,3S,4R,5R)-5-(2-(5-chloropyridin-3-yl)-6-((3-ethylbenzyl)amino)-9H-purin-9-yl)-3,4-dihydroxyl-N-(methyl-d3)-tetrahydrofuran-2-carboxamide] here?
Its EC50 is 15.2 nM.

Which EC50 does the source give for [2H]C([2H])([2H])NC(=O)[C@H]1O[C@@H](n2cnc3c(NCc4cc(C)cc(C)c4)nc(-c4cncc(Cl)c4)nc32)[C@H](O)[C@@H]1O [compound 224, (2S,3S,4R,5R)-5-(2-(5-chloropyridin-3-yl)-6-((3,5-dimethylbenzyl)amino)-9H-purin-9-yl)-3,4-dihydroxyl-N-(methyl-d3)-tetrahydrofuran-2-carboxamide] here?
The EC50 was 1.34 nM.

With [2H]C([2H])([2H])NC(=O)[C@H]1O[C@@H](n2cnc3c(NCc4cc(F)ccc4Cl)nc(-c4cncc(Cl)c4)nc32)[C@H](O)[C@@H]1O [compound 246, (2S,3S,4R,5R)-5-(6-(2-chloro-5-fluorobenzylamino)-2-(5-chloropyridin-3-yl)-9H-purin-9-yl)-3,4-dihydroxyl-N-(methyl-d3)-tetrahydrofuran-2-carboxamide] as the compound, how does the EC50 read?
Its EC50 is 1.18 nM.

For CNC(=O)[C@H]1O[C@@H](n2cnc3c(NCc4cccc(Cl)n4)nc(-c4cccnc4)nc32)[C@H](O)[C@@H]1O [compound 247], which EC50 is on record?
Its EC50 is 4.16 nM.

Which EC50 does the source give for [2H]C([2H])([2H])NC(=O)[C@H]1O[C@@H](n2cnc3c(NCc4cccc(C)c4)nc(-c4cncc(CC)c4)nc32)[C@H](O)[C@@H]1O [compound 282, (2S,3S,4R,5R)-5-(2-(5-ethylpyridin-3-yl)-6-((3-methylbenzyl)amino)-9H-purin-9-yl)-3,4-dihydroxyl-N-(methyl-d3)tetrahydrofuran-2-formamide] here?
The EC50 was 4 nM.

Which EC50 does the source give for [2H]C([2H])([2H])NC(=O)[C@H]1O[C@@H](n2cnc3c(NCc4cccc(C)c4)nc(-c4cncc(OC)c4)nc32)[C@H](O)[C@@H]1O [compound 302] here?
Its EC50 is 2.26 nM.

Tested on: not listed separately
Assay: Pharmacokinetic test of compound in SD rat
Type: in vivo
Conditions: SD rats, intragastric administration (IG), cassette dosing
Procedure: Example 28: Pharmacokinetic Test of Compound in SD Rat
The animal species used in this experiment were SD rats. There were 3 animals per group. The rats were dosed in cassette format, i.e., multiple (1-6) different compounds were dosed simultaneously to the same group of the SD rats. The vehicle used for the drug was 5% DMSO+5% Solutl+90% ([…] methylcellulose M450), and the administration route was intragastric administration (IG).

For CCOc1cncc(-c2nc(NCc3cccc(C)c3)c3ncn(C4O[C@H](C(=O)NC)[C@@H](O)[C@H]4O)c3n2)c1 (stereo in doubt) [compound 301, (2S,3S,4R,5S)-5-(2-(5-ethoxypyridin-3-yl)-6-((3-methylbenzyl)amino)-9H-purin-9-yl)-3,4-dihydroxyl-N-methyltetrahydrofuran-2-carboxamide], which “AUC_D” value is on record?
The value was 744.06 kg·ng·h/mL/mg.

For [2H]C([2H])([2H])NC(=O)[C@H]1O[C@@H](n2cnc3c(NCc4ccc(OC)cc4)nc(-c4cncc(Cl)c4)nc32)[C@H](O)[C@@H]1O [compound 267, (2S,3S,4R,5R)-5-(2-(5-chloropyridin-3-yl)-6-(4-methoxybenzylamino)-9H-purin-9-yl)-3,4-dihydroxyl-N-(methyl-d3)-tetrahydrofuran-2-carboxamide], which “AUC_D” value is on record?
The value was 82.98 kg·ng·h/mL/mg.

With [2H]C([2H])([2H])NC(=O)[C@H]1O[C@@H](n2cnc3c(NCc4cccc(C)n4)nc(-c4cncc(Cl)c4)nc32)[C@H](O)[C@@H]1O [compound 271, (2S,3S,4R,5R)-5-(2-(5-chloropyridin-3-yl)-6-((6-methylpyridin-2-yl)methylamino)-9H-purin-9-yl)-3,4-dihydroxyl-N-(methyl-d3)-tetrahydrofuran-2-carboxamide] as the compound, how does the “AUC_D” value read?
Its value is 1131.18 kg·ng·h/mL/mg.

For [2H]C([2H])([2H])NC(=O)[C@H]1O[C@@H](n2cnc3c(NCCC)nc(-c4cncc(Cl)c4)nc32)[C@H](O)[C@@H]1O [compound 285, (2S,3S,4R,5R)-5-(2-(5-chloropyridin-3-yl)-6-(propylamino)-9H-purin-9-yl)-3,4-dihydroxyl-N-(methyl-d3)-tetrahydrofuran-2-carboxamide], which “AUC_D” value is on record?
The value was 175.00 kg·ng·h/mL/mg.

For [2H]C([2H])([2H])NC(=O)[C@H]1O[C@@H](n2cnc3c(NCCOC)nc(-c4cncc(Cl)c4)nc32)[C@H](O)[C@@H]1O [compound 288, (2S,3S,4R,5R)-5-(2-(5-chloropyridin-3-yl)-6-((2-methoxyethyl)amino)-9H-purin-9-yl)-3,4-dihydroxyl-N-(methyl-d3)-tetrahydrofuran-2-carboxamide], which “AUC_D” value is on record?
Its value is 118.00 kg·ng·h/mL/mg.

For CNC(=O)[C@H]1O[C@@H](n2cnc3c(NCc4cccc(C)n4)nc(-c4cncc(C)c4)nc32)[C@H](O)[C@@H]1O [compound 295, (2S,3S,4R,5R)-3,4-dihydroxyl-N-methyl-5-(6-(((6-methylpyridin-2-yl)methyl)amino)-2-(5-methylpyridin-3-yl)-9H-purin-9-yl)tetrahydrofuran-2-carboxamide], which “AUC_D” value is on record?
The value was 610.66 kg·ng·h/mL/mg.

For [2H]C([2H])([2H])NC(=O)[C@H]1O[C@@H](n2cnc3c(NC(C)C)nc(-c4cncc(Cl)c4)nc32)[C@H](O)[C@@H]1O [compound 319, (2S,3S,4R,5R)-5-(2-(5-chloropyridin-3-yl)-6-(isopropylamino)-9H-purin-9-yl)-3,4-dihydroxyl-N-(methyl-d3)tetrahydrofuran-2-carboxamide], which “AUC_D” value is on record?
The value was 74.00 kg·ng·h/mL/mg.

Which “AUC_D” value does the source give for [2H]C([2H])([2H])NC(=O)[C@H]1O[C@@H](n2cnc3c(NCc4cccc(F)c4)nc(-c4cncc(Cl)c4)nc32)[C@H](O)[C@@H]1O [compound 321] here?
Its value is 1167.46 kg·ng·h/mL/mg.

Which “AUC_D” value does the source give for CNC(=O)[C@H]1O[C@@H](n2cnc3c(NCc4ccc(F)c(F)c4)nc(-c4cncc(Cl)c4)nc32)[C@H](O)[C@@H]1O [compound 322, (2S,3S,4R,5R)-5-(2-(5-chloropyridin-3-yl)-6-((3,4-difluorobenzyl)amino)-9H-purin-9-yl)-3,4-dihydroxyl-N-methyltetrahydrofuran-2-carboxamide] here?
The value was 97.03 kg·ng·h/mL/mg.

Which “AUC_D” value does the source give for [2H]C([2H])([2H])NC(=O)[C@H]1O[C@@H](n2cnc3c(OCc4ccccc4)nc(-c4cncc(Cl)c4)nc32)[C@H](O)[C@@H]1O [compound 323, (2S,3S,4R,5R)-5-(6-(benzyloxy)-2-(5-chloropyridin-3-yl)-9H-purin-9-yl)-3,4-dihydroxyl-N-(methyl-d3)-tetrahydrofuran-2-formamide] here?
Its value is 1309.00 kg·ng·h/mL/mg.

With CCNC(=O)[C@H]1O[C@@H](n2cnc3c(N)nc(-c4cncc(Cl)c4)nc32)[C@H](O)[C@@H]1O [compound 324, (2S,3S,4R,5R)-5-(6-amino-2-(5-chloropyridin-3-yl)-9H-purin-9-yl)-N-ethyl-3,4-dihydroxyltetrahydrofuran-2-formamide] as the compound, how does the “AUC_D” value read?
Its value is 78.00 kg·ng·h/mL/mg.
